Laboratory results: patent publication US12685756B2, “Methods of treating disease with Terlipressin” (BIOVIE INC., priority 2022, dated 2026)
Positions of bridges follow the written chain, without caps; N, C: chain ends. Residues, ends and D or L forms follow the SMILES beside them.

Legend:
[1] = ongoing clinical trial of terlipressin administered as a continuous infusion in patients with cirrhosis and refractory ascites (serum sodium, hyponatremia); conditions: human, in vivo
Experimental: The following clinical observations were made in an ongoing clinical trial evaluating the safety and efficacy of terlipressin, administered as a continuous infusion, in patients with cirrhosis and refractory ascites. In FIGS. 1-4, “D” stands for “Day” and the notation “Dn” where n is an integer refers to the number of days after the baseline sodium level was measured. The notation “D+N” where N is an integer refers to the number of days after administration of terlipressin was stopped.
Patient #1, a patient with cirrhosis due to NASH and recurrent ascites that was not responding to treatment with the diuretic furosemide initiated infusion with terlipressin (3 mg/day) on Day 1. Terlipressin dose (mg/day), furosemide daily dose, and serum sodium levels of the Patient #1 are recorded in FIG. 1. After 6 days of treatment with terlipressin at a dose of 3 mg/day the dose of terlipressin was escalated to 4 mg/day as per protocol. A modest reduction in serum sodium of 3 mmol/L from baseline was noted before the dose increase. After 7 days of treatment with 4 mg/day serum sodium decreased an additional 8 mmol/L so that there was a total reduction of 11 mmol/L in the 13 days of treatment versus baseline (128 vs 139 mmol/L). […] Terlipressin infusion was discontinued.
Patient #2, a person with alcoholic cirrhosis and recurrent ascites who could not be treated with diuretics began treatment with terlipressin at a dose of 3 mg/day. The daily terlipressin dose and serum sodium levels of the Patient #2 are recorded in FIG. 2.
Patient #3, a person with cirrhosis due to NASH, with uncontrolled ascites despite ongoing treatment with the diuretics furosemide and spironolactone, initiated treatment with terlipressin administered as a continuous intravenous infusion at a dose of 3 mg/day. Terlipressin dose (mg/day), furosemide daily dose, and serum sodium levels of the Patient #3 are recorded in FIG. 3. […] Though the patient was asymptomatic the patient was directed to go to the Emergency room. […]

[2] = parameters: species or system human; conditions: in vivo
Experimental: Patient #4, who was one of 6 patients treated with terlipressin administered as a continuous infusion in our previous Phase 2a trial, was a person with recurrent ascites due to cirrhosis despite taking the […] spironolactone and furosemide. Terlipressin, furosemide, and serum sodium levels of […] are recorded in FIG. 4. According to protocol this patient began treatment with terlipressin at an initial dose of 2 mg/day who was escalated to a dose of 3 mg/day on Day 5. Serum sodium gradually declined over time reaching a reduction of 10 mmol/L on Day 5 at which point the patient stopped taking furosemide. Serum sodium continued to decline and spironolactone was stopped for two days which had no impact on declining serum sodium. Terlipressin infusion was stopped after 9 days of treatment and serum sodium rebounded after 2 days of drug cessation.
Additionally, one patient in our previously conducted Phase 2a trial (n=6) similarly developed asymptomatic hyponatremia in response to terlipressin administration.
In searching for a commonality between the three patients that experienced hyponatremia in response to terlipressin treatment in the current trial it was noted that the three patients were taking daily gabapentin (Patient #1 and 2) or pregabalin (Patient #3) though none of the other 7 patients randomized to treatment with terlipressin were taking either of these medications. Moreover, the one patient out of six who developed hyponatremia in response to terlipressin in the previous Phase 2a trial was also taking gabapentin.

[3] = bolus IV administration, cited from earlier work
[4] = administered acutely as a single bolus dose; cited from earlier work
[5] = administered over 14 days with daily albumin to HRS patients; cited from earlier work
[6] = continuous infusion, outpatient setting, without daily albumin; cited from earlier work
[7] = human, in vivo; cited from earlier work
[8] = human, in vivo; cited from earlier work; remark: listed apart in the source
[9] = in vivo; cited from earlier work
[10] = in vivo; cited from earlier work; remark: listed apart in the source
[11] = in vivo; cited from earlier work; remark: listed apart in the source

NCCCC[C@H](NC(=O)[C@@H]1CCCN1C(=O)[C@@H]1CSSC[C@H](NC(=O)CNC(=O)CNC(=O)CN)C(=O)N[C@@H](Cc2ccc(O)cc2)C(=O)N[C@@H](Cc2ccccc2)C(=O)N[C@@H](CCC(N)=O)C(=O)N[C@@H](CC(N)=O)C(=O)N1)C(=O)NCC(N)=O [terlipressin] (H-GGGCYFQNCPKG-NH2; disulfide 4-9)
additional decrease in serum sodium [1]: 4 mmol/L | relatedness of hyponatremia to treatment [1]: considered related to terlipressin | total reduction in serum sodium versus baseline [1]: 11 mmol/L | patients who developed asymptomatic hyponatremia in response to terlipressin [2]: one patient | relatedness of severe hyponatremia to treatment [2]: considered related to terlipressin treatment | serum sodium after drug cessation [2]: rebounded | symptoms of severe hyponatremia [2]: asymptomatic | hours in which V2 mediated antidiuretic effects can predominate ([3]; between bolus doses): 4 to 6 h | duration of V1-mediated pharmacodynamic effects [3]: 3 to 4 h | antidiuretic effect [4]: mediates antidiuretic effects | effect on low serum sodium [5]: can even correct low serum sodium | effect on renal function and ascites [6]: improve renal function and reduce ascites | effect on serum sodium concentrations [6]: improve serum sodium concentrations | patients who experienced hyponatremia defined as ≥5 mmol decrease in serum sodium [7]: 67% | patients with severe hyponatremia (reduction in serum sodium of >10 mmol/L) [8]: more than 12% | patients with severe hyponatremia who experience neurological manifestations [8]: at least 30% | incidence of hyponatremia [9]: < 5%

NCC1(CC(=O)O)CCCCC1 [gabapentin]
risk of hyponatremia compared with other anti-epilepsy drugs [10]: lowest risk of hyponatremia among anti-epilepsy drugs

NC(=O)CC[C@@H]1NC(=O)[C@H](Cc2ccccc2)NC(=O)[C@H](Cc2ccc(O)cc2)NC(=O)CCSSC[C@@H](C(=O)N2CCC[C@H]2C(=O)N[C@H](CCCN=C(N)N)C(=O)NCC(N)=O)NC(=O)[C@H](CC(N)=O)NC1=O [desmopressin]
incidence of desmopressin-induced hyponatremia [11]: 7.6%
